Each structure is given as a SMILES string. A value given as a limit tells only on which side of the number the result lay.

For the compound `O=C(Nc1nc(-c2ccc(Br)cc2)cs1)c1ccccc1`, the melting point came out at 115 °C.

The compound `Cc1ccc(C2C(C#N)=C(N)N3C(=C2C#N)Sc2ccccc23)cc1` (stereo unspecified) displayed a melting point of 200 to 202 °C.

Compound `Cc1cc(C(=O)NCCc2ccc(S(=O)(=O)NC(=O)NN3CCCCCC3)cc2)no1` yielded a melting point of 189 °C.

Turning to `O=C(O)Cc1ccccc1C(=O)O`, the melting point lay within 178 to 182 °C.

Compound `O=C1OC(=O)c2c(Br)c(Br)c(Br)c(Br)c21` yielded a melting point of 275 °C.

For the compound `Cc1c(Cl)c(C)c([N+](=O)[O-])c(O)c1Cl`, the melting point lay within 227 to 229 °C.

In turn, `O=C(O)c1ccc(-c2ccsc2)cc1` registered a melting point of 282 to 283 °C.

In turn, `COc1c(C(C)(C)C(C)C)c2nc3ccccc3nc2c2ccccc12` displayed a melting point of 88.6 °C.

`CCCCCCNC(=O)C=Cc1ccc(O)c(O)c1` displayed a melting point of 142 °C.

As to `FC(F)(F)c1cc(Cl)c2cccc(Cl)c2n1`, the melting point came out at 62 °C.

For the compound `CC(C)(c1cc(Br)c(OCCO)c(Br)c1)c1cc(Br)c(OCCO)c(Br)c1`, the melting point fell in the range of 108 to 114 °C.

`C/C(=N\O)c1cc(C(C)(C)C)c(O)c(C(C)(C)C)c1`: the melting point was 200 to 201 °C.

The compound `Cc1cnc(Br)c(N)c1` registered a melting point of 105 °C.

For the compound `O=C(O)C(C(F)(F)F)C(F)(F)F`, the melting point was 52 °C.

Regarding `O=C(O)C1CCN(C(=O)OCc2ccccc2)CC1`, the melting point is 78 to 81 °C.

Consider `N#Cc1c(F)cccc1I`, for which the melting point worked out at 50 °C.

In turn, `CCCCCCCCCCCCCCCCOc1ccc(C(=O)O)cc1` showed a melting point of 132 °C.

The compound `COc1cc(C=O)ccc1OC(C)=O` displayed a melting point of 76 °C.

Take `Cc1cc(CS)c(CS)cc1C`: the melting point lay in the range of 64 to 69 °C.

In turn, `CC(=O)CCc1oc2ccc(NC(C)=O)cc2c1-c1ccc(C)o1` showed a melting point of 131 to 132 °C.

In the case of `CC1(C)OC(=O)C(=C2CCCCCN2)C(=O)O1`, the melting point was in the range of 147 to 149 °C.

With `OC1c2ccccc2CCc2ccccc21`, the melting point was found to be 92 °C.

Consider `COc1cc(C)c(C=O)cc1C`, for which the melting point is 31 to 35 °C.

The compound `Cc1ccc(C(c2ccc(C)cc2)(C(F)(F)F)C(F)(F)F)cc1` returned a melting point of 82 to 83 °C.

For `COC(=O)c1ccc(N2CCCC2)cc1`, the melting point fell in the range of 141 to 143 °C.

Regarding `COc1ccc([N+](=O)[O-])cc1`, the melting point was 54 °C.

Compound `NC(=S)NCCCc1ccccc1` registered a melting point of 111 °C.

As to `O=[N+]([O-])c1ccc(-c2ccc([N+](=O)[O-])cc2Cl)cc1`, the melting point fell in the range of 144 to 146 °C.

In turn, `O=Cc1cccc2cccc(C(=O)O)c12` showed a melting point of 160 to 167 °C.

`O=[N+]([O-])c1cc2nccnc2cc1Br` came in with a melting point of 221 to 227 °C.

As to `FC(F)(F)N1C(F)(F)C(F)(F)OC(F)(F)C1(F)F`, the melting point was -80 °C.

Compound `Brc1ccc2c(c1)OCCOCCOCCOCCO2` had a melting point of 66 to 71 °C.

`O=C(c1cc2ccccc2o1)c1cc2ccccc2o1` had a melting point of 174 to 175 °C.

For `N#CC1(c2ccccc2)Cc2ccccc2C(=O)O1` (stereo unspecified), the melting point came to 141 °C.

With `COCCOc1ccccc1S(=O)(=O)NC(=O)Nc1nc(OC)nc(OC)n1`, the melting point stood at 130 °C.

In turn, `CCOC(=O)CC(=O)OCC` displayed a melting point of -50 °C.

As for `N#C/C(=N/Nc1cccc([N+](=O)[O-])c1)c1nc(-c2ccccc2)cs1`, the melting point was found to be 215 °C.

`O=c1c(Br)c(SCc2ccccc2)cnn1-c1ccccc1`: the melting point lay in the range of 137 to 138 °C.

The compound `c1cc2[nH]cnc2cn1` displayed a melting point of 172 °C.

`Cc1ccc(C)c2c(=O)c(=O)c12` had a melting point of 133 °C.

Regarding `O=Cc1ccc2ccc3cccc4ccc1c2c34`, the melting point came to 127 °C.

Take `CC12CCC(O)CC1CC1(OCCO1)C1C2CCC2(C)C1CCC21OCCO1` (stereo unspecified): the melting point lay within 99 to 103 °C.

Take `c1ccc(-c2cnc(-c3cccc4ccccc34)o2)cc1`: the melting point is 104 to 106 °C.

In turn, `C=CCOOC(C)(C)c1ccccc1` registered a melting point of 60 °C.

Take `C=C1CC2CC(OC(=O)c3ccccc3)CCC2(C)C2CCC3(C)C(OC(=O)c4ccccc4)CCC3C12` (stereo unspecified): the melting point was determined as 192 °C.

Compound `COn1c(C)c(C(C)=O)c2c3nonc3ccc21` showed a melting point of 201 to 203 °C.

Turning to `CNC(c1ccccc1)C(NC)c1ccccc1` (stereo unspecified), the melting point fell in the range of 48 to 51 °C.

`OCCC(F)(F)C(F)(F)C(F)(F)C(F)(F)F`: the melting point was -58 °C.

Compound `O=S(=O)(Nc1ccc(F)cc1C(F)(F)F)C(F)(F)F` displayed a melting point of 45 °C.

The compound `CC(C)(C)OC(=O)NCc1ccc(CO)cc1` yielded a melting point of 98 to 99 °C.

Compound `O=C(O)CCc1ccc(Cl)cc1` yielded a melting point of 119 °C.

`Cc1cc(C)c([N+](=O)[O-])c(C)c1` yielded a melting point of 44 °C.

For the compound `COc1ccccc1C(=O)c1cc2c(cc1Br)OCCO2`, the melting point was in the range of 95 to 97 °C.

Compound `CCOC(=O)c1c(C=O)c(C)n(C2CC2)c1C` showed a melting point of 75 to 80 °C.

For the compound `CCOc1ccc(-c2nnc3n2NC(c2ccc([N+](=O)[O-])cc2)S3)cc1` (stereo unspecified), the melting point was determined as 98 °C.

On to `CC(C)(C)c1ncc(C(=O)Nc2cc(C(F)(F)F)cc(C(F)(F)F)c2)nc1Cl`, for which the melting point turned out to be 99 °C.

Regarding `NC(Cc1ccccc1)=NO`, the melting point was in the range of 66 to 67 °C.

With `Ic1cccc2ccccc12`, the melting point came to 4 °C.

For `CC(C)(N)C(=O)O`, the melting point was 335 °C.

`O=C(c1ccccc1)c1ccccc1NC(=O)[C@@H]1CCCN1Cc1ccccc1`: the melting point lay within 100 to 103 °C.

Consider `c1ccc(Oc2ccc(Oc3ccccc3)cc2)cc1`, for which the melting point fell in the range of 73 to 77 °C.

Take `CCN(Cc1c(F)cccc1Cl)c1c([N+](=O)[O-])cc(C(F)(F)F)cc1[N+](=O)[O-]`: the melting point is 102 °C.

The compound `O=[N+]([O-])c1ccc2[nH]ncc2c1` had a melting point of 210 °C.

`Brc1cccc(Br)c1Oc1ccccc1` displayed a melting point of under 20 °C.

As to `COc1ccc(C(=O)Oc2ccc(C(=O)/C=C/c3ccc4c(c3)OCO4)cc2)cc1`, the melting point stood at 169 °C.

For the compound `O=C(O)C=CC(=O)Nc1ccccc1`, the melting point came to 177 °C.

In turn, `CC/C=C/C(=O)O` yielded a melting point of 9 °C.

As to `O=[N+]([O-])c1ccc2c(c1)S(=O)(=O)CC2SCCO` (stereo unspecified), the melting point is 127 to 129 °C.

`O=Cc1ccc(-c2ccc(C(=O)O)cc2)cc1` showed a melting point of 150 °C.

`CC(O)CCc1ccc(CCC(C)O)cc1` (stereo unspecified): the melting point is 42 to 46 °C.

`Cc1cc(C(F)(F)F)n2nc(N)c(/N=N/c3ccccc3)c2n1` gave a melting point of 201 to 203 °C.

Compound `NC(=O)C1CCCN1C(=O)COC(=O)c1ccccc1` (stereo unspecified) returned a melting point of 194 °C.

Compound `O=C(O)CC(CC(=O)O)C(=O)O` yielded a melting point of 166 °C.

`c1n[nH]c2c1CCCC2` gave a melting point of 82 °C.

`N#Cc1cccc(-c2cccs2)c1` gave a melting point of 58 to 60 °C.

On to `Nc1cc(Cl)cc(C(=O)O)c1Cl`, for which the melting point came out at 200 °C.

As usually defined, the melting point is the temperature, or range, at which the solid turns liquid.
